Values of other authors in patent publication US6365601B1, “Process for extraction of piperine from piper species” (Council of Scientific and Industrial Research, priority 1999, dated 2002).

Settings: Reen and Rashmet, J. Ethnopharmacol., 1997

O=C(/C=C/C=C/c1ccc2c(c1)OCO2)N1CCCCC1 [Piperine]
chemoprotective effect against procarcinogens: potent chemoprotective effect
